Key:
Experiment in all cases: radiometric filter-binding kinase assay, Kinase HotSpot
Details in all cases: compound 0.5 µM; ATP 10 µM
GRK7 (human) = GRK7 (human) (UniProt Q8WTQ7)
CAMK4 (human) = CAMK4 (human) (UniProt Q16566)
PLK1 (human) = PLK1 (human) (UniProt P53350)
PRKCB1 (human) = PRKCB1 (human) (UniProt P05771)
CDK6 CCND1 (human) = CDK6 CCND1 (human) (UniProt Q00534+P24385)
ABL1 (human) = ABL1 (human) (UniProt P00519)
CSF1R (human) = CSF1R (human) (UniProt P07333)
CSNK1D (human) = CSNK1D (human) (UniProt P48730)
[1] = system: MKNK1 (human), Q9BUB5 [T385D; 165-205 del]
NEK7 (human) = NEK7 (human) (UniProt Q8TDX7)
CAMK2B (human) = CAMK2B (human) (UniProt Q13554)
CHUK (human) = CHUK (human) (UniProt O15111)
FGFR1 (human) = FGFR1 (human) (UniProt P11362)
IRAK1 (human) = IRAK1 (human) (UniProt P51617)
Sequence of IRAK1 (human) (P51617 whole entry, looked up): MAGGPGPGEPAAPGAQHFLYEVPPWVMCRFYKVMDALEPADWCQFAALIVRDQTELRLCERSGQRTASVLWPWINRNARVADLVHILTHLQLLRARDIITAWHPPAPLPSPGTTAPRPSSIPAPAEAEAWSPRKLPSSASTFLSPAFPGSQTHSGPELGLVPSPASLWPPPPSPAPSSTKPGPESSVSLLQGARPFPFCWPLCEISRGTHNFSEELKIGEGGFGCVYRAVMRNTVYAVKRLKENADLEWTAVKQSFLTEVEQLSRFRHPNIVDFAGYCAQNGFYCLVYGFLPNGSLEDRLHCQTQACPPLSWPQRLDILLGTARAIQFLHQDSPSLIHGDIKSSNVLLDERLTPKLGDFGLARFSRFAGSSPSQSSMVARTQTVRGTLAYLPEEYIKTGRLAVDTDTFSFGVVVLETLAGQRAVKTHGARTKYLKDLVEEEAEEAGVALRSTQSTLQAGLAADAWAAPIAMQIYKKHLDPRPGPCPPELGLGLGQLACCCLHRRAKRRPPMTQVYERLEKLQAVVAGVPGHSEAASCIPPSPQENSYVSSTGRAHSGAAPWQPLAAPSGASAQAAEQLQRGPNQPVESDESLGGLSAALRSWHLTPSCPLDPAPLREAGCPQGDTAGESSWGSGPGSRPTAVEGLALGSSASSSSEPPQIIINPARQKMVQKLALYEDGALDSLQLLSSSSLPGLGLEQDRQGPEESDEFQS

MLTK (human) = MLTK (human) (UniProt Q9NYL2)
TEK (human) = TEK (human) (UniProt Q02763)
Sequence of TEK (human) (Q02763 whole entry, looked up): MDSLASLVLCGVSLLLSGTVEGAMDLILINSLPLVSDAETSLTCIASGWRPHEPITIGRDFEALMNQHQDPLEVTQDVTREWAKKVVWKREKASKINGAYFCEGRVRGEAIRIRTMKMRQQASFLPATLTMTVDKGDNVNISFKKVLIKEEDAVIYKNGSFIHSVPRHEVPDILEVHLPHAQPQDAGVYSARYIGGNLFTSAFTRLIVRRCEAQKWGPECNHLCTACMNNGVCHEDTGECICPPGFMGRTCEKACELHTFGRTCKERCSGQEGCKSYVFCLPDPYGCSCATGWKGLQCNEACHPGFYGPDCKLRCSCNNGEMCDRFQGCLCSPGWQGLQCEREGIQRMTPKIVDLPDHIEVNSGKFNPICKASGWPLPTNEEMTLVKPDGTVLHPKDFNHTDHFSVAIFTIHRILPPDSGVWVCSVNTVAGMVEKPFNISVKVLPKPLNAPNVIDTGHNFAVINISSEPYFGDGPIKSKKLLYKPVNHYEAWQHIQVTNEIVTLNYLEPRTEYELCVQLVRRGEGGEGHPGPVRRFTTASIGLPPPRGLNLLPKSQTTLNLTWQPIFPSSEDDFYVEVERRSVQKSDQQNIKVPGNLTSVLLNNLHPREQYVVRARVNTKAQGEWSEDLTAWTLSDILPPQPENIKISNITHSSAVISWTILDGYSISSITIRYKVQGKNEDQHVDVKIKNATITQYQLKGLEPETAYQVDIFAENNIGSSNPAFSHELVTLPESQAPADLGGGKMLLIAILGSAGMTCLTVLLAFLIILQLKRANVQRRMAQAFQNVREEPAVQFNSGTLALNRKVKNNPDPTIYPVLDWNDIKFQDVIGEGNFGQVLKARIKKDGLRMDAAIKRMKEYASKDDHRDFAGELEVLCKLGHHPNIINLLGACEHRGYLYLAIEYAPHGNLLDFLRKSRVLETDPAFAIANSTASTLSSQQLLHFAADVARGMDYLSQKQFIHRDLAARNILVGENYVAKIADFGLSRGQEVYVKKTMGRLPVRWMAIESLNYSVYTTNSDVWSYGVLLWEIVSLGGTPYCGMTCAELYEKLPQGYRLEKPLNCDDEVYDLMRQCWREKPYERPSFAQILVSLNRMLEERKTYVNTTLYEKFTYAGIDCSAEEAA

SLK (human) = SLK (human) (UniProt Q9H2G2)
NEK9 (human) = NEK9 (human) (UniProt Q8TD19)
PDGFRA (human) = PDGFRA (human) (UniProt P16234)
AKT2 (human) = AKT2 (human) (UniProt P31751)
FGR (human) = FGR (human) (UniProt P09769)
GSG2 (human) = GSG2 (human) (UniProt Q8TF76)
NEK3 (human) = NEK3 (human) (UniProt P51956)
MARK1 (human) = MARK1 (human) (UniProt Q9P0L2)
DYRK1B (human) = DYRK1B (human) (UniProt Q9Y463)
ACVR1B (human) = ACVR1B (human) (UniProt P36896)
MAPK3 (human) = MAPK3 (human) (UniProt P27361)
FLT3 (human) = FLT3 (human) (UniProt P36888)
MYLK (human) = MYLK (human) (UniProt Q15746)
CDC42BPA (human) = CDC42BPA (human) (UniProt Q5VT25)
Sequence of CDC42BPA (human) (Q5VT25 whole entry, looked up): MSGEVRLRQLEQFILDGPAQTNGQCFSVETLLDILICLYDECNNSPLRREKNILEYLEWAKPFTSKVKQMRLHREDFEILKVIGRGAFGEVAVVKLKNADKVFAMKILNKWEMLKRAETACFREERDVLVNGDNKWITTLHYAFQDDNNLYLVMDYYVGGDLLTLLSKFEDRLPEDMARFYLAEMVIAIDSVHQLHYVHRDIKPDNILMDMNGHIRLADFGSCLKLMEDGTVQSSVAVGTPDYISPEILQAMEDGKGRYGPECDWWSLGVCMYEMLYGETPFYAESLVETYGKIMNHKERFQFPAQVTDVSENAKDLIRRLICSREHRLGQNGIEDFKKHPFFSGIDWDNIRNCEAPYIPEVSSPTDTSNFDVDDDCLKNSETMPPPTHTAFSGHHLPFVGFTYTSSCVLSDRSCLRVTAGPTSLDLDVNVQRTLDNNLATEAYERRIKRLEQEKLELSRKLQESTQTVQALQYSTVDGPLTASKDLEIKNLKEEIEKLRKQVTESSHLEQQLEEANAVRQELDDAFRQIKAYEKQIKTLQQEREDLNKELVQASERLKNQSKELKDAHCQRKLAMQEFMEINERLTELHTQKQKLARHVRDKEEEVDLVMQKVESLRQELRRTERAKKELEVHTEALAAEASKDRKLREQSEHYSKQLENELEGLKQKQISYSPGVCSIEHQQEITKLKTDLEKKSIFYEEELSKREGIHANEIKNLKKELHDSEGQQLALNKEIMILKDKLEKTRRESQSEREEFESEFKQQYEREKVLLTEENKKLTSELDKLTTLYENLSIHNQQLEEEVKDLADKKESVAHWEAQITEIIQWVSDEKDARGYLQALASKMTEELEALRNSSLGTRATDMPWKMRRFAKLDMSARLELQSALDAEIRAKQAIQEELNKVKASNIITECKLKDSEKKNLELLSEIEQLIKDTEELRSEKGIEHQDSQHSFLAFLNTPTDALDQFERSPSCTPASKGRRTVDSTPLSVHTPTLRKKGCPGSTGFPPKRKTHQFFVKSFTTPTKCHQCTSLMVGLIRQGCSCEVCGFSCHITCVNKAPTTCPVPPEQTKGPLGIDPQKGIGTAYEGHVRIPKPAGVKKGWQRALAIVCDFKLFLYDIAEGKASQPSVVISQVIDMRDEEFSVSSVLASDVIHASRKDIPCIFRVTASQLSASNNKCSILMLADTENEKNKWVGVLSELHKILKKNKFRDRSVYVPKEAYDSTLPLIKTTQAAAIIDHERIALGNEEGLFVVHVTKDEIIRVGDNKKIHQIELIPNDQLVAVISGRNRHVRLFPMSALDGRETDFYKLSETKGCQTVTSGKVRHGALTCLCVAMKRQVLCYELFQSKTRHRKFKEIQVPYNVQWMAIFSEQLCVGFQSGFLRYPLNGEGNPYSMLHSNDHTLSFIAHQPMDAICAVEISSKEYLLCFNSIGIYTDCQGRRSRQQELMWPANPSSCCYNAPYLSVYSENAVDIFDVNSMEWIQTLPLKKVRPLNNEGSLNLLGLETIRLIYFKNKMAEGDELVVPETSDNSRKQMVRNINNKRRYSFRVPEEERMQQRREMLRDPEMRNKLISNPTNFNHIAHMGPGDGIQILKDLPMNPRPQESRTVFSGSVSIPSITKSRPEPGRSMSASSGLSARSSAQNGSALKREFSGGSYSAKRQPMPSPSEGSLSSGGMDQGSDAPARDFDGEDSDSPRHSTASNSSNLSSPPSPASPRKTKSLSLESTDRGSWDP

MARK2 (human) = MARK2 (human) (UniProt Q7KZI7)
MAPK9 (human) = MAPK9 (human) (UniProt P45984)
SRPK3 (human) = SRPK3 (human) (UniProt Q9UPE1)
Sequence of SRPK3 (human) (Q9UPE1 whole entry, looked up): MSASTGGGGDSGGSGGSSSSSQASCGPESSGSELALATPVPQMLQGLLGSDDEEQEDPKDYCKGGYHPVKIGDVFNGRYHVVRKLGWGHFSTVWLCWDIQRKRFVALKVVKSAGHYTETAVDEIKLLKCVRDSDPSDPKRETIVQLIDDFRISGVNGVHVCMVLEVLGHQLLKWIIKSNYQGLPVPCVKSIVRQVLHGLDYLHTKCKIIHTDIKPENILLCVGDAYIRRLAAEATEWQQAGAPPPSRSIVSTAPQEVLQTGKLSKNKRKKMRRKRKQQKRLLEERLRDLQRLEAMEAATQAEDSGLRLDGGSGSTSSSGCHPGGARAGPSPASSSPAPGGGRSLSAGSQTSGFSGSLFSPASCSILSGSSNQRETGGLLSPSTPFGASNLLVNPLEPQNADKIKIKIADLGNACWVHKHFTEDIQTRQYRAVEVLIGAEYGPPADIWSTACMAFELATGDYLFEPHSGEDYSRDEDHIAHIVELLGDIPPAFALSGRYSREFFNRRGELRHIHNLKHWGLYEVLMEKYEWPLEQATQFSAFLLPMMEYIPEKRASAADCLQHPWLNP

WNK3 (human) = WNK3 (human) (UniProt Q9BYP7)
FES (human) = FES (human) (UniProt P07332)
PTK6 (human) = PTK6 (human) (UniProt Q13882)
INSRR (human) = INSRR (human) (UniProt P14616)
PHKG1 (human) = PHKG1 (human) (UniProt Q16816)
AXL (human) = AXL (human) (UniProt P30530)
Sequence of AXL (human) (P30530 whole entry, looked up): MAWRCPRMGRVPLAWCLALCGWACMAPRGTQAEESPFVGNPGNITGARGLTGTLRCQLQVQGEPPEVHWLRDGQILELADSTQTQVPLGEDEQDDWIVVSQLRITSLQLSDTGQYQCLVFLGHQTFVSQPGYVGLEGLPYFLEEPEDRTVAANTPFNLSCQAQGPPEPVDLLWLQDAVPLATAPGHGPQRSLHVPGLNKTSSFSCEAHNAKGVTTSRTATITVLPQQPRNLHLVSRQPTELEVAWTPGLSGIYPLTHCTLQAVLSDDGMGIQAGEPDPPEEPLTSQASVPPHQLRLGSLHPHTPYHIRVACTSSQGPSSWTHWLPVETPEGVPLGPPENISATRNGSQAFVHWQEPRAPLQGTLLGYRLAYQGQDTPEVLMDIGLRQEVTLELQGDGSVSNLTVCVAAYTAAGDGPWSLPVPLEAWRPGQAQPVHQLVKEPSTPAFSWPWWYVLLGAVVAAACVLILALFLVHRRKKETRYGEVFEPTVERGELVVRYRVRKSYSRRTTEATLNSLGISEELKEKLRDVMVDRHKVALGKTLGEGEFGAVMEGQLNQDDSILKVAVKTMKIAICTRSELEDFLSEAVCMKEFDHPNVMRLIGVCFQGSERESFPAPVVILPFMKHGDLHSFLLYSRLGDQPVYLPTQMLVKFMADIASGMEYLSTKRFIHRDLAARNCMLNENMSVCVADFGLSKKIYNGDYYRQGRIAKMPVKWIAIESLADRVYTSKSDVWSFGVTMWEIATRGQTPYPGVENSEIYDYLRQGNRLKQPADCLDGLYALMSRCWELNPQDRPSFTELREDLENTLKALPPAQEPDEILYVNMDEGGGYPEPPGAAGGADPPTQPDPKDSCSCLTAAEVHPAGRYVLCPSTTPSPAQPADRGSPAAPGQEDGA

STK25 (human) = STK25 (human) (UniProt O00506)
PRKACA (human) = PRKACA (human) (UniProt P17612)
CLK3 (human) = CLK3 (human) (UniProt P49761)

## COc1ccc2c(c1)c(C1=C(c3c[nH]c4ccccc34)C(=O)NC1=O)cn2CCCN(C)C
GRK7 (human)
  residual activity: 106%
CAMK4 (human)
  residual activity: 90.3%
PLK1 (human)
  residual activity: 104%
PRKCB1 (human)
  residual activity: 19.3%
CDK6 CCND1 (human)
  residual activity: 64%
ABL1 (human)
  residual activity: 107%
CSF1R (human)
  residual activity: 92.8%
CSNK1D (human)
  residual activity: 92%
[1]
  residual activity: 92.8%
NEK7 (human)
  residual activity: 99.1%
CAMK2B (human)
  residual activity: 89.9%
CHUK (human)
  residual activity: 96.5%
FGFR1 (human)
  residual activity: 59%
IRAK1 (human)
  residual activity: 89%
MLTK (human)
  residual activity: 95.9%
TEK (human)
  residual activity: 102%
SLK (human)
  residual activity: 69.4%
NEK9 (human)
  residual activity: 90.3%
PDGFRA (human)
  residual activity: 85.2%
AKT2 (human)
  residual activity: 110%
FGR (human)
  residual activity: 107%
GSG2 (human)
  residual activity: 93.5%
NEK3 (human)
  residual activity: 98.3%
MARK1 (human)
  residual activity: 93.2%
DYRK1B (human)
  residual activity: 80%
ACVR1B (human)
  residual activity: 111%
MAPK3 (human)
  residual activity: 93%
FLT3 (human)
  residual activity: 23.2%
MYLK (human)
  residual activity: 66.9%
CDC42BPA (human)
  residual activity: 89.2%
MARK2 (human)
  residual activity: 91.8%
MAPK9 (human)
  residual activity: 86.1%
SRPK3 (human)
  residual activity: 89.5%
WNK3 (human)
  residual activity: 92%
FES (human)
  residual activity: 120%
PTK6 (human)
  residual activity: 92%
INSRR (human)
  residual activity: 101%
PHKG1 (human)
  residual activity: 66.4%
AXL (human)
  residual activity: 98.7%
STK25 (human)
  residual activity: 55.7%
PRKACA (human)
  residual activity: 77.9%
CLK3 (human)
  residual activity: 43.6%

## COc1cc2ncnc(Nc3ccc(Oc4ccccc4)cc3)c2cc1OC
GRK7 (human)
  residual activity: 103%
CAMK4 (human)
  residual activity: 97.8%
PLK1 (human)
  residual activity: 96.4%
PRKCB1 (human)
  residual activity: 109%
CDK6 CCND1 (human)
  residual activity: 95.1%
ABL1 (human)
  residual activity: 81.8%
CSF1R (human)
  residual activity: 100%
CSNK1D (human)
  residual activity: 106%
[1]
  residual activity: 98.9%
NEK7 (human)
  residual activity: 103%
CAMK2B (human)
  residual activity: 98.2%
CHUK (human)
  residual activity: 101%
FGFR1 (human)
  residual activity: 85%
IRAK1 (human)
  residual activity: 122%
MLTK (human)
  residual activity: 95.2%
TEK (human)
  residual activity: 99.7%
SLK (human)
  residual activity: 88.7%
NEK9 (human)
  residual activity: 97.8%
PDGFRA (human)
  residual activity: 88.8%
AKT2 (human)
  residual activity: 99.4%
FGR (human)
  residual activity: 8.91%
GSG2 (human)
  residual activity: 92%
NEK3 (human)
  residual activity: 98.4%
MARK1 (human)
  residual activity: 93.3%
DYRK1B (human)
  residual activity: 97%
ACVR1B (human)
  residual activity: 97.5%
MAPK3 (human)
  residual activity: 105%
FLT3 (human)
  residual activity: 3.23%
MYLK (human)
  residual activity: 105%
CDC42BPA (human)
  residual activity: 95.4%
MARK2 (human)
  residual activity: 95.3%
MAPK9 (human)
  residual activity: 99%
SRPK3 (human)
  residual activity: 94.8%
WNK3 (human)
  residual activity: 87.8%
FES (human)
  residual activity: 99.6%
PTK6 (human)
  residual activity: -0.0383%
INSRR (human)
  residual activity: 102%
PHKG1 (human)
  residual activity: 91.8%
AXL (human)
  residual activity: 98.2%
STK25 (human)
  residual activity: 109%
PRKACA (human)
  residual activity: 102%
CLK3 (human)
  residual activity: 101%

## O=C1NC(=O)c2c1c1c3ccccc3[nH]c1n1cncc21
GRK7 (human)
  residual activity: 96.2%
CAMK4 (human)
  residual activity: 89.8%
PLK1 (human)
  residual activity: 50.8%
PRKCB1 (human)
  residual activity: 95%
CDK6 CCND1 (human)
  residual activity: 65.7%
ABL1 (human)
  residual activity: 85.6%
CSF1R (human)
  residual activity: 64.9%
CSNK1D (human)
  residual activity: 17.2%
[1]
  residual activity: 56.3%
NEK7 (human)
  residual activity: 80.3%
CAMK2B (human)
  residual activity: 58.2%
CHUK (human)
  residual activity: 100%
FGFR1 (human)
  residual activity: 55.2%
IRAK1 (human)
  residual activity: 83.1%
MLTK (human)
  residual activity: 78.7%
TEK (human)
  residual activity: 78.9%
SLK (human)
  residual activity: 87.8%
NEK9 (human)
  residual activity: 77.4%
PDGFRA (human)
  residual activity: 84.4%
AKT2 (human)
  residual activity: 121%
FGR (human)
  residual activity: 94.8%
GSG2 (human)
  residual activity: 33.5%
NEK3 (human)
  residual activity: 89.3%
MARK1 (human)
  residual activity: 36.7%
DYRK1B (human)
  residual activity: 65.9%
ACVR1B (human)
  residual activity: 103%
MAPK3 (human)
  residual activity: 87.8%
FLT3 (human)
  residual activity: 9.86%
MYLK (human)
  residual activity: 15.5%
CDC42BPA (human)
  residual activity: 92.7%
MARK2 (human)
  residual activity: 34.7%
MAPK9 (human)
  residual activity: 65.3%
SRPK3 (human)
  residual activity: 75.7%
WNK3 (human)
  residual activity: 79.1%
FES (human)
  residual activity: 117%
PTK6 (human)
  residual activity: 89%
INSRR (human)
  residual activity: 20.7%
PHKG1 (human)
  residual activity: 70.8%
AXL (human)
  residual activity: 91.7%
STK25 (human)
  residual activity: 72.5%
PRKACA (human)
  residual activity: 98.2%
CLK3 (human)
  residual activity: 48.2%

Source: the kinase profiling compilation of Christmann-Franck et al. (2016)
